pIC50: −log10 of the molar value.
Columns and labels:
[1] = test system: 3-Hydroxy-3-Methylglutaryl Coenzyme A Reductase (HMGR); test: HMGR Suppression Assay in digitonin-permeabilized CHO cells; format: cell-based, Chinese Hamster; settings: for pIC50: 6 hr incubation at 37°, amount to suppress HMGR activity by 50% relative to controls; for effect on measured HMGR activity: tested under these same conditions
Description: The ability of the compounds of Formula I to suppress the activity of HMGR, the rate limiting enzyme of cholesterol biosynthesis, was tested as follows. Chinese Hamster Ovary (CHO) cells were divided twice weekly and were maintained in McCoy's 5A medium supplemented with 1% Cab-O-Sil delipidated Fetal Bovine Serum (FBS) (obtained from Gibco Laboratories, Chagrin Falls, Ohio). Cells were harvested during the logarithmic phase of growth and cell cultures were prepared by adding 0.5×10^6 cells to wash well in a 24 well cluster dish (obtained from Costar, Data Packaging Corp., Cambridge, Mass.) employing 1 mL of the above medium per each well. […] Control cells were treated in an identical fashion to those which received test compound, except they were incubated with the BSA and ethanol suspension only.
Specifically, the medium in each well was aspirated and the cells rinsed with a 50 mM solution of phosphate buffered saline (PBS). One mL of 30 μg/mL of digitonin in CSK buffer (prepared using 10 mM Pipes [piperazine-N,N'-bis(2-ethansulfonic)acid'], 100 mM KCl, 2.5 mM MgCl2, 300 mM sucrose, 1 mM EGTA, pH 6.8) was added to each well and incubated for 10 min at 22° to permeabilize the cells. The buffer was carefully aspirated and the wells were rinsed twice each time with 1 mL of PBS. HMGR activity was measured directly by adding 75 μL of PIB buffer (50 mM potassium phosphate, 1 mM Na2 EDTA, 10 mM dithiothreitol, pH 7.4) to each well and incubating the cells for 30 minutes at 37° as described above. […] HMG-Coenzyme A (15 DPM/pmol), pH 7.4. The assay mixture was incubated for 30 min at 37° and terminated by the addition of 70 μL of [^3 H]-mevalonic acid (35,000 DPM/assay), 0.15 mg/mL in 3 N HCl. The reaction was left to lactonize for an additional 30 min at 37° or overnight at room temperature.
Reaction products were separated by thin layer chromatography on silica gel G (obtained from Analtech, Newark, Del.) developed in an unsaturated environment with acetone:benzene (3:2, v:v). The band corresponding to mevalonolactone was identified by exposure to iodine vapor and was scraped into counting vials. The extent of conversion of starting substrate, HMG-CoA, to mevalonic acid was determined by liquid scintillation counting in Biofluor (obtained from New England Nuclear, Boston, Mass). Corrections for recovery and blank values were made for each sample. Protein determinations were made by the Bio-rad (Bio-Rad, Richmond, Cal.) dye binding assay according to the manufacturer's instruction using bovine serum albumin as standard. Cellular protein was solubilized from culture dishes by the addition of 20 μL of 16 N KOH and assayed directly for protein amount. Suppression values are expressed as the amount of compound required to suppress HMGR activity by 50% relative to that of the controls.

[2] = test system: cholesterol synthesis in CHO cells; test: De novo cholesterol synthesis: incorporation of radiolabeled acetate into cholesterol in CHO cells; format: cell-based, Chinese Hamster; settings: for Cholesterol Synthesis (DPMs): 17 hr + 2 hr with [14C]-acetic acid, Control 38855
Description: The ability of the compounds of Formula I to decrease de novo cholesterol synthesis was tested by measuring the incorporation of radiolabeled acetate into cholesterol synthesized in CHO cells. To conduct this experiment, CHO cells were plated at 0.3×10^6 cells per 15×60 mm tissue culture dish in 5 mL of McCoy's modified medium (Gibco Laboratories) containing 1% Cab-O-Sil delipidated FBS and incubated for 48 hours at 37° in a 5% CO2, 95% air environment. Test compounds in a 2.5% suspension of BSA (fatty acid free) in ethanol were then added to the cultures such that the final ethanol and BSA concentrations were 0.5% and […], respectively. Control cultures received ethanol and BSA alone. The cultures containing test compounds were then incubated at 37° in a 5% Co, 95% air environment for 17 hr before the addition of [1,2-^14 C]-acetic acid (57 μCi/mmol); obtained from New England Nuclear, Boston, Mass.) at a concentration of 10 μCi/mL for 2 additional hr.
The cells were harvested by washing the cells twice with 5 mL of cold PBS and scraping the cells into 1 mL PBS. The cell-containing solution was then transferred to 15 mL extraction tubes and treated with 1 mL of 90% methanol (containing 15% KOH, 100 μg/mL butylated hydroxytoluene). All samples were saponified for 1 hr at 80° and the non-saponifiable lipids then extracted with petroleum ether. The petroleum ether fractions were dried under nitrogen, resuspended in ethanol, counted and analyzed by reverse phase HPLC at 45° using an Ultrashpere Octyl column (from Altex Scientific Inc., Berkeley, Calif.) with a mobile phase of acetonitrile:methanol:water (44:44:12). The amount of cholesterol synthesis is measured by the amount of radiolabeled acetate incorporated into the cholesterol peak. The percent of cholesterol synthesis in the treated culture is calculated based upon the control culture.

[3] = biological target: T1, Lanosta-8,24-dien-3β-ol 14α-methyl demethylase (Rattus norvegicus, UniProt Q64654); test: Lanosta-8,24-dien-3β-ol 14α-Methyl Demethylase Inhibition Assay; format: biochemical; settings: for pIC50: rat hepatic microsomal preparations, 100 μM lanost-8-en-3β-ol substrate, pH not given, test compounds 0 to 100 μM; for effect on lanosta-8,24-dien-3β-ol 14α-methyl demethylase activity: rat microsomal preparations
T1 construct: determined in rat depatic microsomal preparations; from tissue; host or cells: rat hepatic microsomes
T1 sequence (Q64654 1-503): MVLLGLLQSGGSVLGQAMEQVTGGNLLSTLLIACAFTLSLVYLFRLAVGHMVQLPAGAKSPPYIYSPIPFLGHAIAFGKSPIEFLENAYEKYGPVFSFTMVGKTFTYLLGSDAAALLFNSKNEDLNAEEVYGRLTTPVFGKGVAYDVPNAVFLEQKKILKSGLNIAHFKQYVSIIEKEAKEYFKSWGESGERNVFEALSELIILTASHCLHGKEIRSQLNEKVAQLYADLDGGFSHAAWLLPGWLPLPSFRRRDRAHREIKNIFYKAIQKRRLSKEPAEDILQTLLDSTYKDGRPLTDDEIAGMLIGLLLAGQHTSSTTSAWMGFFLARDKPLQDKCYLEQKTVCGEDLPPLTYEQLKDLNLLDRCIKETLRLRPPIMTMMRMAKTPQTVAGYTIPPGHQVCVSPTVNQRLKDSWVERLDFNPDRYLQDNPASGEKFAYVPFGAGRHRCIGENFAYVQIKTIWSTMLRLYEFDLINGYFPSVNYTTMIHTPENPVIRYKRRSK
Description: Lanosta-8,24-dien-3β-ol 14α-methyl demethylase activity was determined in rat depatic microsomal preparations as described in Trzaskos et al., J. Biol. Chem., 261, 16937-16942 (1986). Specifically, test compounds were added to assay mixtures as detergent suspensions with substrate employing 5 mg Triton WR-1339, 100 μM lanost-8-en-3β-ol substrate, and test compounds ranging from 0 to 100 μM. The inhibitor/substrate/detergent suspension was incubated with 2 mg microsomal protein for 5 min at 37° followed by a 10 min incubation initiated by the addition of cofactors required for the reaction. […] Inhibition values are expressed as the amount of compound required to inhibit lanosta-8,24-dien-3β-ol 14α-methyldemethylase activity by 50% relative to that of the controls.

[4] = Cricetulus griseus, 19 h, 10 μM, percent of control culture (100)

Structure (SMILES)	pIC50 [1]	pIC50 [3]	also measured
C=CC(O)[C@@]12CC[C@H]([C@H](C)CCCC(C)C)[C@@]1(C)CCC1=C2CC[C@H]2C(C)(C)[C@@H](O)CC[C@]12C (single isomer, unassigned) [Compound 11a, 4,4-dimethyl-14α-(1'-hydroxy-2'-propenyl)-5α-cholest-8-en-3β-ol]	7.22	–	Cholesterol Synthesis (DPMs) ([2]; 1 μM): 360 DPMs
C=CC(O)[C@@]12CC[C@H]([C@H](C)CCCC(C)C)[C@@]1(C)CCC1=C2CC[C@H]2C(C)(C)[C@@H](O)CC[C@]12C (single isomer, unassigned) [Compound 12a, 4,4-dimethyl-14α-(1'-hydroxy-2'-propenyl)-5α-cholest-8-en-3β-ol]	6.89	5.49	Cholesterol Synthesis (DPMs) ([2]; 1 μM): 636 DPMs; activity at 1 µM ([2]; Cricetulus griseus, 19 h, 1 μM, percent of control culture (100)): 2%
CC(C)=CCC[C@@H](C)[C@H]1CC[C@@]2(C)C3=C(CC[C@]12C)[C@@]1(C)CC[C@H](O)C(C)(C)[C@@H]1CC3 [Compound 1, lanosta-8,24-dien-3β-ol, reference compound]	–	–	effect on measured HMGR activity [1]: without effect; effect on lanosta-8,24-dien-3β-ol 14α-methyl demethylase activity [3]: clearly served as substrates
CC(C)CCC[C@@H](C)[C@H]1CC[C@@]2(C(F)F)C3=C(CC[C@]12C)[C@@]1(C)CC[C@H](O)C(C)(C)[C@@H]1CC3 [Compound 9a, 32,32-difluoro-lanost-8-en-3β-ol]	5.89	4.80	Cholesterol Synthesis (DPMs) ([2]; 10 μM): 3615 DPMs; activity at 10 µM [2, 4]: 9%
CC(C)CCC[C@@H](C)[C@H]1CC[C@@]2(C(F)F)C3=CC[C@H]4C(C)(C)[C@@H](O)CC[C@]4(C)[C@H]3CC[C@]12C [Compound 9b, 32,32-difluoro-lanost-7-en-3β-ol]	5.85	4.43	Cholesterol Synthesis (DPMs) ([2]; 10 μM): 10125 DPMs; activity at 10 µM [2, 4]: 26%
CC(C)CCC[C@@H](C)[C@H]1CC[C@@]2(C=NO)C3=C(CC[C@]12C)[C@@]1(C)CC[C@H](O)C(C)(C)[C@@H]1CC3 [Compound 15a, lanost-8-en-32-aldoxime-3β-ol]	7.40	5.96	–
CC(C)CCC[C@@H](C)[C@H]1CC[C@@]2(C=NO)C3=CC[C@H]4C(C)(C)[C@@H](O)CC[C@]4(C)[C@H]3CC[C@]12C [Compound 15b, lanost-7-en-32-aldoxime-3β-ol]	5.85	5.52	Cholesterol Synthesis (DPMs) ([2]; 0.5 μM): 1534 DPMs; activity at 0.5 µM ([2]; Cricetulus griseus, 19 h, 0.5 μM, percent of control culture (100)): 4%
CC(C)CCC[C@@H](C)[C@H]1CC[C@@]2(C#N)C3=C(CC[C@]12C)[C@@]1(C)CC[C@H](O)C(C)(C)[C@@H]1CC3 [Compound 17a, 14α-cyano-4,4-dimethyl-5α-cholest-8-en-3β-ol]	5.85	4.96	–
CC(C)CCC[C@@H](C)[C@H]1C[C@H](F)[C@@]2(C)C3=CC[C@H]4C(C)(C)[C@@H](O)CC[C@]4(C)[C@H]3CC[C@]12C [Compound 26b, 15α-fluoro-lanost-7-en-3β-ol]	6.00	< 4.00	Cholesterol Synthesis (DPMs) ([2]; 10 μM): 12279 DPMs; activity at 10 µM [2, 4]: 32%
CC(C)CCC[C@@H](C)[C@H]1C[C@H](F)[C@@]2(C)C3=CC[C@H]4C[C@@H](O)CC[C@]4(C)[C@H]3CC[C@]12C [Compound 27b, 15α-fluoro-14α-methyl-5α-cholest-7-en-3β-ol]	6.30	< 4.00	–
CC(C)CCC[C@@H](C)[C@H]1C[C@H](O)[C@@]2(O)C3=C(CC[C@]12C)[C@@]1(C)CC[C@H](O)C[C@@H]1CC3 [Compound 35a, 5α-cholest-8-en-3β,14α,15α-triol]	6.40	< 4.00	–
CC(C)CCC[C@@H](C)[C@H]1CC[C@H]2[C@@H]3CC=C4C[C@@H](O)CC[C@]4(C)[C@H]3CC[C@]12C [cholesterol]	–	–	effect on measured HMGR activity [1]: without effect; effect on lanosta-8,24-dien-3β-ol 14α-methyl demethylase activity [3]: without effect
CC(C)CCC[C@@H](C)[C@H]1CC[C@@]2(C)C3=C(CC[C@]12C)[C@@]1(C)CC[C@H](O)C(C)(C)[C@@H]1CC3 [lanost-8-en-3β-ol, reference compound]	–	–	effect on measured HMGR activity [1]: without effect; effect on lanosta-8,24-dien-3β-ol 14α-methyl demethylase activity [3]: clearly served as substrates
